Test results taken from US20220211678A1, “USES OF (+)-A-DIHYDROTETRABENAZINE IN METHODS OF TREATING MOVEMENT DISORDER” (ADEPTIO PHARMACEUTICALS LIMITED, priority 2017, published 2022).

Assays:
[1] = Plasma levels of (+)-α-dihydrotetrabenazine up to 3 hours after oral dosing of human volunteers (Example 1A); assay type: in vivo; conditions: 7.5 mg oral, 0.5 h
Experimental: […] […] Blood samples were not taken from the fifth volunteer. At 60 minutes after drug administration, PET scans were initiated and these were stopped at 120 minutes after drug administration. The experiment was carried out at dosages of 7.5 mg, 15 mg and 22.5 mg.

VMAT2 = molecular target: T1, VMAT2 (Homo sapiens, UniProt Q05940); assay: % VMAT2 blocking by PET scan 60-120 minutes after oral dosing of human volunteers (Example 1A); assay type: in vivo
T1 construct: from tissue; host or cells: brain of living human volunteers, measured by PET
Description: Complete blocking of VMAT2 is considered undesirable as this can lead to unwanted side effects, such as Parkinsonism. […] The levels of VMAT2 blocking can be determined by competitive binding studies using Positron Emission Tomography (PET). By co-administering a radioactive ligand with the compound of interest at various concentrations, the proportion of binding sites occupied can be determined (see for example, Matthews et al., “Positron emission tomography molecular imaging for drug development”, Br. J. Clin. Pharmacol., 73:2, 175-186). Accordingly, the invention also provides:
In four of the volunteers, blood sample were taken at 30, 60, 120 and 180 minutes after drug administration. Blood samples were not taken from the fifth volunteer. At 60 minutes after drug administration, PET scans were initiated and these were stopped at 120 minutes after drug administration.
The experiment was carried out at dosages of 7.5 mg, 15 mg and 22.5 mg.

[2] = Plasma levels of (+)-α-dihydrotetrabenazine up to 7 hours after oral dosing of human volunteers (Example 1B); assay type: in vivo; conditions: 7.5 mg, 7.5 mg oral
Experimental: Volunteers 1 and 2 were the same as volunteers 1 and 2 in Example 1A described above. […] Blood sample were taken from all volunteers 1 to 3 at 2, 4, 6 and 7 hours after drug administration. In addition, in all volunteers PET scans were initiated at 6 hours after drug administration and these were stopped at 7 hours after drug administration.

[3] = test system: non-amphetamine induced rats; assay: Locomotor activity and stereotypic behaviour in non-amphetamine induced rats, open field arena (Example 2, Study 3); assay type: in vivo, rat; conditions: Study 3, non-induced rats; (+)-α-DHTBZ 2.5 mg/kg or 5 mg/kg, risperidone 1 mg/kg
Experimental: All animal experiments were carried out according to the National Institute of Health (NIH) guidelines for the care and use of laboratory animals, and approved by the National Animal Experiment Board, Finland. Male CD (Charles River Laboratories, Germany) at weight range of 200-250 g (165-200 g upon arrival) were used for the experiments. Animals were housed at a standard temperature (22±1° C.) and in a light-controlled environment (lights on from 7 am to 8 pm) with ad libitum access to food and water.
Locomotor activity of the rats was tested in open field arena. The open field test was performed during the rat light cycle and under a normal lighting evenly distributed to the test chambers. The paths of the rats were recorded by activity monitor (Med. Associates Inc.).
Dosing the vehicle, vehicle-amphetamine, (+)-α-DHTBZ or risperidone was done prior to LMA test. The rats were placed in the centre of the arena, and the path was recorded for 60 minutes.
Animals were grouped as follows: • Group 1: 10 rats treated with Vehicle • Group 2: 10 rats treated with (+)-α-DHTBZ 2.5 mg/kg • Group 3: 10 rats treated with (+)-α-DHTBZ 5 mg/kg • Group 4: 10 rats treated with risperidone 1 mg/kg

T1 sequence (Q05940 whole entry): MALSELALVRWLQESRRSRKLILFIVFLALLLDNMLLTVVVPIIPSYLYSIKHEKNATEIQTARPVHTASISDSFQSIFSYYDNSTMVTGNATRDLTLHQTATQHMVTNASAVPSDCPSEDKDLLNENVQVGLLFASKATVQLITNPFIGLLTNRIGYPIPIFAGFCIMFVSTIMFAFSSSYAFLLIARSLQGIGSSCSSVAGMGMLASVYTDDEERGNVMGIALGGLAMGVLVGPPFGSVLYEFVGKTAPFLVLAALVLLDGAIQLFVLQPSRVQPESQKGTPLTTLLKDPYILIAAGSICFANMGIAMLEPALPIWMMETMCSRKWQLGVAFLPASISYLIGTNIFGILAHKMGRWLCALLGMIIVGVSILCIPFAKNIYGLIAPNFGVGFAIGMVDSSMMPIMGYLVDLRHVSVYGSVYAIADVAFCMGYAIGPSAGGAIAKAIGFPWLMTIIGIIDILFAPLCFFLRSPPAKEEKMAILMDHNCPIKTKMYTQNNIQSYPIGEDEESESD

COc1cc2c(cc1OC)[C@H]1C[C@@H](O)[C@H](CC(C)C)CN1CC2 [(+)-α-dihydrotetrabenazine, (R,R,R)-3-isobutyl-9,10-dimethyloxy-1,3,4,5,7,11b-hexahydro-2H-pyrido[2,1-a]isoquinolin-2-ol]
plasma concentration of (+)-α-dihydrotetrabenazine ([1]; subject 1 (112 kg)): BLQ | plasma concentration of (+)-α-dihydrotetrabenazine ([1]; subject 6 (68 kg)): BLQ | % VMAT2 blocking (VMAT2; 7.5 mg oral, PET scan 60-120 min after administration, subject 1 (112 kg)): 54% | % VMAT2 blocking (VMAT2; 7.5 mg oral, PET scan 60-120 min after administration, subject 2 (76 kg)): 73% | % VMAT2 blocking (VMAT2; 7.5 mg oral, PET scan 60-120 min after administration, subject 3 (129 kg)): 62% | % VMAT2 blocking (VMAT2; 7.5 mg oral, PET scan 60-120 min after administration, subject 4 (59 kg)): 84% | % VMAT2 blocking (VMAT2; 7.5 mg oral, PET scan 60-120 min after administration, subject 5 (91 kg)): 73% | % VMAT2 blocking (VMAT2; 7.5 mg oral, PET scan 60-120 min after administration, subject 6 (68 kg)): 60% | % VMAT2 blocking (VMAT2; 15 mg oral, PET scan 60-120 min after administration, subject 1 (112 kg)): 73% | % VMAT2 blocking (VMAT2; 15 mg oral, PET scan 60-120 min after administration, subject 2 (76 kg)): 83% | % VMAT2 blocking (VMAT2; 15 mg oral, PET scan 60-120 min after administration, subject 3 (129 kg)): 69% | % VMAT2 blocking (VMAT2; 15 mg oral, PET scan 60-120 min after administration, subject 4 (59 kg)): 89% | % VMAT2 blocking (VMAT2; 15 mg oral, PET scan 60-120 min after administration, subject 5 (91 kg)): 79% | % VMAT2 blocking (VMAT2; 15 mg oral, PET scan 60-120 min after administration, subject 6 (68 kg)): 76% | % VMAT2 blocking (VMAT2; 22.5 mg oral, PET scan 60-120 min after administration, subject 1 (112 kg)): 75% | % VMAT2 blocking (VMAT2; 22.5 mg oral, PET scan 60-120 min after administration, subject 2 (76 kg)): 82% | % VMAT2 blocking (VMAT2; 22.5 mg oral, PET scan 60-120 min after administration, subject 3 (129 kg)): 74% | % VMAT2 blocking (VMAT2; 22.5 mg oral, PET scan 60-120 min after administration, subject 5 (91 kg)): 82% | % VMAT2 blocking (VMAT2; 22.5 mg oral, PET scan 60-120 min after administration, subject 6 (68 kg)): 62% | % VMAT2 blocking (VMAT2; heavier individuals, doses as low as 7.5 mg): at least 50% | concentration at 2 h ([2]; subject 1 (112 kg)): 6.01 ng/mL | concentration at 2 h ([2]; subject 2 (76 kg)): 17.5 ng/mL | concentration at 2 h ([2]; subject 3 (76 kg)): 7.92 ng/mL | concentration at 4 h ([2]; subject 1 (112 kg)): 4.54 ng/mL | concentration at 4 h ([2]; subject 2 (76 kg)): 4.54 ng/mL | concentration at 4 h ([2]; subject 3 (76 kg)): 5.57 ng/mL | concentration at 6 h ([2]; subject 1 (112 kg)): 3.65 ng/mL | concentration at 6 h ([2]; subject 2 (76 kg)): 3.65 ng/mL | concentration at 6 h ([2]; subject 3 (76 kg)): 4.84 ng/mL | concentration at 7 h ([2]; subject 1 (112 kg)): 8.7 ng/mL | concentration at 7 h ([2]; subject 2 (76 kg)): 11.7 ng/mL | concentration at 7 h ([2]; subject 3 (76 kg)): 12.8 ng/mL | total movement compared to rats treated with the vehicle [3]: comparable | total stereotypic behaviour compared to rats treated with the vehicle [3]: comparable
